Reference: patent US20050064524A1, “Population of cells utilizable for substance detection and methods and devices using same” (priority 2003, published 2005)

Experiments:
U937 cells [1] = test: Specificity of ROS probe DCFH-DA towards hydrogen peroxide and NO donor in labeled cells; format: cell-based; conditions: FIGS. 22a-b
Procedure: The pro-monocyte U937 cell line was used as cell culture model. Hydrogen peroxide was used as a source of ROS. Probe loading of cells was measured in bulk and at individual cell level. Probe concentration, loading time and cell washing were determined for the different ROS probes. The kinetics of ROS generation was measured in real time by monitoring sequentially the same individual cells. Photo toxicity induced by repeated excitations was checked. FIGS. 12-17, 18-19 and 20-21a-b show the ability of dihydrorhodamine 123 (DHR), dichlorodihydrofluorescein diacetate (DCFH-DA) and dihydroethidium (DHE), respectively, to detect ROS formation in U937 cells treated with hydrogen peroxide.
(§1) The specificity of DCFH-DA and DAF-2DA towards ROS and […] respectively, was tested.

U937 cells [2] = test: Intracellular NO measurement with DAF-2DA probe in labeled cells; format: cell-based; conditions: for signal of cells labeled with DAF-2DA (NO probe): FIGS. 22a-b
Procedure: Fluorescent microscopy and imaging system—Olympus motorized upright epi-fluorescence BX51 microscope, equipped with motorized polarization filters for fluorescence polarization measurements was used. Cells were illuminated by a Mercury light source. The emitted fluorescence was imaged by CoolSNAP HQ monochrome CCD camera, or DVC-1312 (DVC Company, West Austin, Tex., USA) color camera. Digital image analysis of cellular fluorescence was performed by Image Pro plus software (Media Cybernetics. Inc. Silver Spring, Md.,USA).
Quantitative measurements of intracellular NO concentration in individual U937 cells were effected in response to incubation in the presence of the Diethylene triamine NONOate ([…]) donor (0.1-1 mM). The loading of cells with probe was measured in bulk at the individual cell level. Probe concentration loading time and cell washing were determined. The kinetic of NO generation was measured in real time by sequentially monitoring the same individual cells. Photo-toxicity induced by repeated excitations was checked and subtracted. Time response of NO generation in the presence or absence of DETA/NO donor (0.5 mM) in U937 cells labeled with DAF-2DA (10 μM, 15 min) is shown in FIG. 3. […] Quantitative measurements of intracellular NO levels in individual living cells labeled with DAF-2DA and treated with DETA/NO are shown in FIGS. 7a-b and 8a-b.
as §1

individual live cell = conditions: hydrogen peroxide stimulus, FIG. 27
Procedure: Measurement of intracellular ROS in live cells—The measurement of intracellular reactive oxygen species (ROS) levels was performed using the DHR123 (1-10 μM), DCFDA(1 μM) or DHE (2 μM) probes.
For probe loading, 100 μl of cells at a concentration of 1.52×10^6 cells/mL in PBS or in serum free media without phenol red were incubated in the presence of the various probes for 15 min at 37° C. and 5% CO2, and then washed twice in PBS and thereafter exposed to either LPC (10-20 μM), MTX (50 nM) or H2O2 (10-500 μM).

Row | SMILES | signal of cells labeled with DCFH-DA (ROS probe) (U937 cells [1]) | intracellular NO generation in U937 cells in response to donor (U937 cells [2]; U937 cells labeled with DAF-2DA (10 μM, 15 min), donor 0.1-1 mM) | signal of cells labeled with DAF-2DA (NO probe) (U937 cells [2]) | temporal relationship between ROS generation (DHR) and onset of changes in mitochondrial membrane potential (TMRM) (individual live cell)
1 | NCCN(CCN)/[N+]([O-])=N/O [DETA/NO, Diethylene triamine NONOate] | only a minor response | accumulate NO | strong signal | –
2 | OO [hydrogen peroxide] | strong and quantifiable signal | – | background signal | Hyperpolarization of mitochondrial membrane potential preceded the increase in ROS level
